Patent EP4741383A1, “COMPOUND AND USE THEREOF AS ANTI-CANCER DRUG” (Tyligand Bioscience (Shanghai) Limited, priority 2023, dated 2025)

test system: SK-BR-3; assay: CellTiter-Glo cell proliferation inhibition, SK-BR-3; format: cell-based; details: Homo sapiens; SK-BR-3 (breast cancer cell line), 72 hours; read-out: Example IC50 (µM) SK-BR-3
Source text: This experiment used the CellTiter-Glo® Luminescent Cell Viability Assay kit from Promega to evaluate the inhibitory activity of the disclosed compounds on the proliferation of the following cell lines: 4T1 (mouse breast cancer cell line), A20 (mouse B-cell lymphoma cell line), A2780 (human ovarian cancer cell line), AsPC-1 (pancreatic cancer cell line), B16F10 (mouse melanoma cell line), BT549 (human breast cancer cell line), CT26 (mouse colon cancer cell line), EMT6 (mouse breast cancer cell line), HCT116 (colorectal cancer cell line), Jurket (acute leukemia cell line), KP-4 (pancreatic cancer cell line), LL/2 (mouse lung cancer cell line), MCF7 (breast cancer cell line), […] NCI-H358 (lung cancer cell line), NCI-H727 (gastric cancer cell line), NCI-1944 (lung cancer cell line), Pan 04.03 (pancreatic cancer cell line), SK-BR-3 (breast cancer cell line), THP-1 (leukemia cell line), TOV21G (ovarian cancer cell line), U87MG (glioblastoma cell line), and UM-UC-a (bladder cancer cell line).
All cell lines were purchased from Nanjing Kebai Biotechnology Co., Ltd. The following materials were also used in the experiment: RPMI-1640 media (HyClone, catalog number #SH30022.01), McCoy's 5A media (Thermo Fisher, catalog number #16600-082), MCDB 105 media (Sigma, catalog number #117-500), Medium 199 (Thermo Fisher, catalog number #11150-059), MEM media (Thermo Fisher, catalog number #11095-080), DMEM media (HyClone, catalog number #SH30027.01), fetal bovine serum (FBS) (ExCell, catalog number # M4530), Sodium Pyruvate (100Mm) (Thermo Fisher, catalog number #11360-070), and MEM NEAA (100X) (Thermo Fisher). […]
Cells were cultured according to the instructions provided by the cell supplier (Nanjing Kebai Biotechnology Co., Ltd.). […] Suspension or adherent cells were collected, and cell viability was determined using the trypan blue exclusion method, ensuring that cell viability was above 90%. […]

IC50 | SMILES
0.14 µM | O=C(Nc1ccc(-c2csc(CO)c2)cc1)C(=O)Nc1ccc(-c2cc3cc(F)c(-c4nnn[nH]4)cc3n2C2CCC2)cc1 [Example 1]
0.057 µM | CC1(n2c(-c3ccc(NC(=O)C(=O)Nc4ccc(N5CCC6(CCOC6)CC5)cc4)cc3)cc3cc(F)c(-c4nnn[nH]4)cc32)CCC1 [Example 68]
0.044 µM | O=C(Nc1ccc(-c2cc3cc(F)c(-c4nnn[nH]4)cc3n2C2CCC2)cc1)C(=O)Nc1ccc(N2CCC3(CCC(O)C3)CC2)cc1 (stereo not drawn) [Example 100]
